Reference: ChEMBL document CHEMBL1201861, “Genomics of Drug Sensitity in Cancer screening data, Wellcome Trust Sanger Institute”

Assays:
Experiment in all cases: cells
[1] = test system: TE-12; type: functional, cell-based; conditions: Homo sapiens;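 further: growth inhibition of TE-12 cells, read out by a cell viability assay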
Description: SANGER: Inhibition of human TE-12 cell growth in a cell viability assay.

[2] = test system: LU-134-A; type: functional, cell-based; conditions: Homo sapiens
Description: SANGER: Inhibition of human LU-134-A cell growth in a cell viability assay.

[3] = test system: NTERA-2-cl-D1; type: functional, cell-based, Homo sapiens; conditions: Homo sapiens, NTERA-2-cl-D1;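 further: inhibition of cell growth, measured with a cell viability assay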
Description: SANGER: Inhibition of human NTERA-S-cl-D1 cell growth in a cell viability assay.

[4] = test system: HT-3; type: functional, cell-based, Homo sapiens; conditions: Homo sapiens, HT-3;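 further: growth inhibition measured with a cell viability readout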
Description: SANGER: Inhibition of human HT-3 cell growth in a cell viability assay.

[5] = test system: MZ2-MEL; type: functional, cell-based, Homo sapiens; conditions: Homo sapiens, MZ2-MEL;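 further: growth inhibition of MZ2-MEL cells read out with a cell viability assay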
Description: SANGER: Inhibition of human MZ2-MEL cell growth in a cell viability assay.

[6] = test system: U-251; type: functional, cell-based, Homo sapiens; conditions: Homo sapiens, U-251;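 further: growth inhibition of human U-251 cells, read out through a cell viability assay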
Description: SANGER: Inhibition of human U251 cell growth in a cell viability assay.

[7] = test system: FTC-133; type: functional, cell-based, Homo sapiens; conditions: Homo sapiens, FTC-133
[8] = test system: SK-MEL-1; type: functional, cell-based; conditions: Homo sapiens;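 further: growth inhibition of human SK-MEL-1 cells, read out by a cell viability assay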
Description: SANGER: Inhibition of human SK-MEL-1 cell growth in a cell viability assay.

[9] = test system: NCI-H1623; type: functional, cell-based, Homo sapiens; conditions: Homo sapiens, NCI-H1623;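 further: cell viability assay used as the read-out for growth inhibition of NCI-H1623 cells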
Description: SANGER: Inhibition of human NCI-H1623 cell growth in a cell viability assay.

[10] = test system: PANC-08-13; type: functional, cell-based, Homo sapiens; conditions: Homo sapiens, PANC-08-13;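 further: cell growth inhibition, measured with a cell viability assay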
Description: SANGER: Inhibition of human PANC-08-13 cell growth in a cell viability assay.

[11] = test system: BHT-101; type: functional, cell-based, Homo sapiens; conditions: Homo sapiens, BHT-101
Description: SANGER: Inhibition of human BHT-101 cell growth in a cell viability assay.

[12] = test system: MN-60; type: functional, cell-based; conditions: Homo sapiens;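 further: growth inhibition of the MN-60 cell line, determined with a cell viability assay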
Description: SANGER: Inhibition of human MN-60 cell growth in a cell viability assay.

[13] = test system: IST-SL1; type: functional, cell-based, Homo sapiens; conditions: Homo sapiens, IST-SL1;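 further: growth inhibition of human IST-SL1 cells, read out with a cell viability assay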
Description: SANGER: Inhibition of human IST-SL1 cell growth in a cell viability assay.

[14] = test system: SK-MEL-2; type: functional, cell-based, Homo sapiens; conditions: Homo sapiens, SK-MEL-2;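 further: growth inhibition of human SK-MEL-2 cells measured with a cell viability assay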
Description: SANGER: Inhibition of human SK-MEL-2 cell growth in a cell viability assay.

[15] = test system: LOX IMVI; type: functional, cell-based; conditions: Homo sapiens
Description: SANGER: Inhibition of human LOXIMVI cell growth in a cell viability assay.

[16] = test system: LS-1034; type: functional, cell-based, Homo sapiens; conditions: Homo sapiens, LS-1034
Description: SANGER: Inhibition of human LS-1034 cell growth in a cell viability assay.

[17] = test system: KOSC-2; type: functional, cell-based, Homo sapiens; conditions: Homo sapiens, KOSC-2;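 further: growth inhibition of KOSC-2 cells, read out by a cell viability assay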
Description: SANGER: Inhibition of human KOSC-2 cell growth in a cell viability assay.

[18] = test system: MC116; type: functional, cell-based; conditions: Homo sapiens;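 further: growth inhibition of MC116 cells, read out with a cell viability assay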
Description: SANGER: Inhibition of human MC116 cell growth in a cell viability assay.

[19] = test system: KYSE-510; type: functional, cell-based, Homo sapiens; conditions: Homo sapiens, KYSE-510;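 further: cell viability readout used to measure how strongly growth of the cell line is suppressed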
Description: SANGER: Inhibition of human KYSE-510 cell growth in a cell viability assay.

[20] = test system: IGROV-1; type: functional, cell-based, Homo sapiens; conditions: Homo sapiens, IGROV-1;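 further: reduction of IGROV-1 cell growth, read out with a viability assay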
Description: SANGER: Inhibition of human IGROV-1 cell growth in a cell viability assay.

[21] = test system: KYSE-70 cell line; type: functional, cell-based, Homo sapiens; conditions: Homo sapiens, KYSE-70;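 further: cell viability assay read-out, with IC50 expressing suppression of KYSE-70 cell growth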
Description: SANGER: Inhibition of human KYSE-70 cell growth in a cell viability assay.

[22] = test system: SW1710; type: functional, cell-based, Homo sapiens; conditions: Homo sapiens, SW1710;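 further: growth inhibition of SW1710 cells, determined with a cell viability assay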
Description: SANGER: Inhibition of human SW1710 cell growth in a cell viability assay.

[23] = test system: KMOE-2; type: functional, cell-based; conditions: Homo sapiens;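 further: growth inhibition of human KMOE-2 cells, read out with a cell viability assay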
Description: SANGER: Inhibition of human KMOE-2 cell growth in a cell viability assay.

[24] = test system: NCI-H650; type: functional, cell-based, Homo sapiens; conditions: Homo sapiens, NCI-H650;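 further: growth inhibition of NCI-H650 cells, read out by a viability assay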
Description: SANGER: Inhibition of human NCI-H650 cell growth in a cell viability assay.

[25] = test system: CAL-62; type: functional, cell-based, Homo sapiens; conditions: Homo sapiens, CAL-62;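 further: growth inhibition of CAL-62 cells, read out with a cell viability assay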
Description: SANGER: Inhibition of human CAL-62 cell growth in a cell viability assay.

[26] = test system: NCI-H23; type: functional, cell-based, Homo sapiens; conditions: Homo sapiens, NCI-H23;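 further: cell viability assay measuring growth inhibition of NCI-H23 cells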
Description: SANGER: Inhibition of human NCI-H23 cell growth in a cell viability assay.

[27] = test system: HT-29; type: functional, cell-based, Homo sapiens; conditions: Homo sapiens, HT-29;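 further: growth inhibition of human HT-29 cells, read out by a cell viability assay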
Description: SANGER: Inhibition of human HT-29 cell growth in a cell viability assay.

[28] = test system: LC-2-ad; type: functional, cell-based, Homo sapiens; conditions: Homo sapiens, LC-2-ad;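 further: growth inhibition of human LC-2-ad cells, read out with a cell viability assay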
Description: SANGER: Inhibition of human LC-2-ad cell growth in a cell viability assay.

[29] = test system: SH-4; type: functional, cell-based, Homo sapiens; conditions: Homo sapiens, SH-4;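 further: growth inhibition of SH-4 cells, read out with a cell viability assay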
Description: SANGER: Inhibition of human SH-4 cell growth in a cell viability assay.

[30] = test system: TE-11; type: functional, cell-based, Homo sapiens; conditions: Homo sapiens, TE-11;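 further: growth inhibition of human TE-11 cells, read out by a cell viability assay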
Description: SANGER: Inhibition of human TE-11 cell growth in a cell viability assay.

[31] = test system: NCI-H2228; type: functional, cell-based, Homo sapiens; conditions: Homo sapiens, NCI-H2228;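 further: growth inhibition of human NCI-H2228 cells, read out by a cell viability assay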
Description: SANGER: Inhibition of human NCI-H2228 cell growth in a cell viability assay.

[32] = test system: GMS-10; type: functional, cell-based, Homo sapiens; conditions: Homo sapiens, GMS-10;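 further: growth inhibition of GMS-10 cells, read out as cell viability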
Description: SANGER: Inhibition of human GMS-10 cell growth in a cell viability assay.

[33] = test system: UO-31; type: functional, cell-based; conditions: Homo sapiens;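 further: cell viability assay measuring inhibition of cell growth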
Description: SANGER: Inhibition of human U031 cell growth in a cell viability assay.

[34] = test system: HT-144; type: functional, cell-based, Homo sapiens; conditions: Homo sapiens, HT-144
Description: SANGER: Inhibition of human HT-144 cell growth in a cell viability assay.

[35] = test system: D-542MG; type: functional, cell-based, Homo sapiens; conditions: Homo sapiens, D-542MG
Description: SANGER: Inhibition of human D-542MG cell growth in a cell viability assay.

[36] = test system: KARPAS-299; type: functional, cell-based; conditions: Homo sapiens
Description: SANGER: Inhibition of human KARPAS-299 cell growth in a cell viability assay.

[37] = test system: IST-MEL1; type: functional, cell-based, Homo sapiens; conditions: Homo sapiens, IST-MEL1;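 further: growth inhibition of the cell line, read out with a cell viability assay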
Description: SANGER: Inhibition of human IST-MEL1 cell growth in a cell viability assay.

[38] = test system: LCLC-103H cell line; type: functional, cell-based, Homo sapiens; conditions: Homo sapiens, LCLC-103H
Description: SANGER: Inhibition of human LCLC-103H cell growth in a cell viability assay.

[39] = test system: SK-N-AS; type: functional, cell-based, Homo sapiens; conditions: Homo sapiens, SK-N-AS;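 further: growth inhibition of human SK-N-AS cells, measured with a cell viability assay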
Description: SANGER: Inhibition of human SK-N-AS cell growth in a cell viability assay.

[40] = test system: DBTRG-05MG; type: functional, cell-based, Homo sapiens; conditions: Homo sapiens, DBTRG-05MG;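 further: cell viability assay measuring growth inhibition of human DBTRG-05MG cells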
Description: SANGER: Inhibition of human DBTRG-05MG cell growth in a cell viability assay.

[41] = test system: MPP-89; type: functional, cell-based, Homo sapiens; conditions: Homo sapiens, MPP-89;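 further: growth inhibition of human MPP-89 cells, read out with a cell viability assay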
Description: SANGER: Inhibition of human MPP-89 cell growth in a cell viability assay.

[42] = test system: COR-L23; type: functional, cell-based, Homo sapiens; conditions: Homo sapiens, COR-L23;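 further: cell viability assay measuring how strongly compounds suppress growth of COR-L23 cells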
Description: SANGER: Inhibition of human COR-L23 cell growth in a cell viability assay.

[43] = test system: SW837; type: functional, cell-based, Homo sapiens; conditions: Homo sapiens, SW837;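 further: growth inhibition of SW837 cells, determined with a cell viability assay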
Description: SANGER: Inhibition of human SW837 cell growth in a cell viability assay.

[44] = test system: MZ1-PC; type: functional, cell-based, Homo sapiens; conditions: Homo sapiens, MZ1-PC;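 further: cell viability assay measuring growth inhibition of human MZ1-PC cells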
Description: SANGER: Inhibition of human MZ1-PC cell growth in a cell viability assay.

[45] = test system: DEL; type: functional, cell-based; conditions: Homo sapiens;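 further: growth inhibition of the human DEL cell line, read out with a cell viability assay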
Description: SANGER: Inhibition of human DEL cell growth in a cell viability assay.

[46] = test system: OE33; type: functional, cell-based, Homo sapiens; conditions: Homo sapiens, OE33;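 further: growth inhibition of human OE33 cells, measured by a cell viability assay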
Description: SANGER: Inhibition of human OE33 cell growth in a cell viability assay.

[47] = test system: JVM-2; type: functional, cell-based; conditions: Homo sapiens;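 further: growth inhibition of JVM-2 cells determined by a cell viability assay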
Description: SANGER: Inhibition of human JVM-2 cell growth in a cell viability assay.

[48] = test system: Capan-2; type: functional, cell-based, Homo sapiens; conditions: Homo sapiens, Capan-2;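 further: Capan-2 cell growth inhibition, read out with a viability assay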
Description: SANGER: Inhibition of human Capan-2 cell growth in a cell viability assay.

[49] = test system: KGN; type: functional, cell-based, Homo sapiens; conditions: Homo sapiens, KGN;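 further: growth inhibition of KGN cells, read out with a cell viability assay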
Description: SANGER: Inhibition of human KGN cell growth in a cell viability assay.

[50] = test system: OAW-42; type: functional, cell-based, Homo sapiens; conditions: Homo sapiens, OAW-42;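 further: growth inhibition of OAW-42 cells, read out with a cell viability assay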
Description: SANGER: Inhibition of human OAW-42 cell growth in a cell viability assay.

[51] = test system: HuP-T3; type: functional, cell-based, Homo sapiens; conditions: Homo sapiens, HuP-T3;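 further: HuP-T3 cell growth inhibition, read out with a cell viability assay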
Description: SANGER: Inhibition of human HuP-T3 cell growth in a cell viability assay.

## O=C(NOCC1CC1)c1ccc(F)c(F)c1Nc1ccc(I)cc1Cl [CI-1040]
[1]
  IC50: 9030 nM
[2]
  IC50: > 10000 nM
[3]
  IC50: > 10000 nM
[4]
  IC50: > 10000 nM
[5]
  IC50: 2110 nM
[6]
  IC50: > 10000 nM
[7]
  IC50: > 10000 nM
[8]
  IC50: 1230 nM
[9]
  IC50: > 10000 nM
[10]
  IC50: > 10000 nM
[11]
  IC50: 286 nM
[12]
  IC50: > 10000 nM
[13]
  IC50: > 10000 nM
[14]
  IC50: 1570 nM
[15]
  IC50: 1890 nM
[16]
  IC50: > 10000 nM
[17]
  IC50: > 10000 nM
[18]
  IC50: > 10000 nM
[19]
  IC50: > 10000 nM
[20]
  IC50: 4450 nM
[21]
  IC50: > 10000 nM
[22]
  IC50: 5620 nM
[23]
  IC50: 198 nM
[24]
  IC50: > 10000 nM
[25]
  IC50: 4070 nM
[26]
  IC50: > 10000 nM
[27]
  IC50: 5980 nM
[28]
  IC50: > 10000 nM
[29]
  IC50: 463 nM
[30]
  IC50: > 10000 nM
[31]
  IC50: > 10000 nM
[32]
  IC50: > 10000 nM
[33]
  IC50: > 10000 nM
[34]
  IC50: 647 nM
[35]
  IC50: > 10000 nM
[36]
  IC50: > 10000 nM
[37]
  IC50: 8000 nM
[38]
  IC50: > 10000 nM
[39]
  IC50: 1080 nM
[40]
  IC50: 8750 nM
[41]
  IC50: > 10000 nM
[42]
  IC50: 7240 nM
[43]
  IC50: > 10000 nM
[44]
  IC50: > 10000 nM
[45]
  IC50: > 10000 nM
[46]
  IC50: > 10000 nM
[47]
  IC50: > 10000 nM
[48]
  IC50: > 10000 nM
[49]
  IC50: 9840 nM
[50]
  IC50: > 10000 nM
[51]
  IC50: 5620 nM

## Nc1ccn([C@@H]2O[C@H](CO)[C@@H](O)[C@@H]2O)c(=O)n1 [CYTARABINE]
[1]
  IC50: > 2000 nM
[2]
  IC50: > 2000 nM
[3]
  IC50: 159 nM
[4]
  IC50: 1380 nM
[5]
  IC50: 1430 nM
[6]
  IC50: 1130 nM
[7]
  IC50: 1390 nM
[8]
  IC50: > 2000 nM
[9]
  IC50: 536 nM
[10]
  IC50: > 2000 nM
[11]
  IC50: 41.8 nM
[12]
  IC50: 935 nM
[13]
  IC50: > 2000 nM
[14]
  IC50: > 2000 nM
[15]
  IC50: 290 nM
[16]
  IC50: > 2000 nM
[17]
  IC50: 643 nM
[18]
  IC50: 1280 nM
[19]
  IC50: 306 nM
[20]
  IC50: 1790 nM
[21]
  IC50: 1860 nM
[22]
  IC50: 1730 nM
[23]
  IC50: 944 nM
[24]
  IC50: > 2000 nM
[25]
  IC50: 710 nM
[26]
  IC50: 1200 nM
[27]
  IC50: > 2000 nM
[28]
  IC50: 230 nM
[29]
  IC50: > 2000 nM
[30]
  IC50: > 2000 nM
[31]
  IC50: 597 nM
[32]
  IC50: 396 nM
[33]
  IC50: 1250 nM
[34]
  IC50: 1230 nM
[35]
  IC50: > 2000 nM
[36]
  IC50: > 2000 nM
[37]
  IC50: 381 nM
[38]
  IC50: > 2000 nM
[39]
  IC50: 450 nM
[40]
  IC50: > 2000 nM
[41]
  IC50: 1310 nM
[42]
  IC50: 797 nM
[43]
  IC50: > 2000 nM
[44]
  IC50: 1800 nM
[45]
  IC50: 875 nM
[46]
  IC50: 1800 nM
[47]
  IC50: > 2000 nM
[48]
  IC50: > 2000 nM
[49]
  IC50: > 2000 nM
[50]
  IC50: 1250 nM
[51]
  IC50: 856 nM

## CC(=O)O[C@@]12CO[C@@H]1C[C@H](O)[C@@]1(C)C(=O)[C@H](O)C3=C(C)[C@@H](OC(=O)[C@H](O)[C@@H](NC(=O)OC(C)(C)C)c4ccccc4)C[C@@](O)([C@@H](OC(=O)c4ccccc4)[C@H]21)C3(C)C [DOCETAXEL]
[1]
  IC50: > 10 nM
[2]
  IC50: > 10 nM
[3]
  IC50: 0.773 nM
[4]
  IC50: 2.82 nM
[5]
  IC50: 6.58 nM
[6]
  IC50: 2.5 nM
[7]
  IC50: 0.489 nM
[8]
  IC50: > 10 nM
[9]
  IC50: 8.56 nM
[10]
  IC50: > 10 nM
[11]
  IC50: 9.8 nM
[12]
  IC50: > 10 nM
[13]
  IC50: 3.12 nM
[14]
  IC50: 1.7 nM
[15]
  IC50: 1.16 nM
[16]
  IC50: > 10 nM
[17]
  IC50: 0.255 nM
[18]
  IC50: > 10 nM
[19]
  IC50: 0.84 nM
[20]
  IC50: > 10 nM
[21]
  IC50: 6.24 nM
[22]
  IC50: 0.466 nM
[23]
  IC50: > 10 nM
[24]
  IC50: 2.25 nM
[25]
  IC50: 0.185 nM
[26]
  IC50: 3.64 nM
[27]
  IC50: 2.8 nM
[28]
  IC50: 3.4 nM
[29]
  IC50: 3.22 nM
[30]
  IC50: 0.569 nM
[31]
  IC50: 7.25 nM
[32]
  IC50: 0.941 nM
[33]
  IC50: 3.07 nM
[34]
  IC50: 0.157 nM
[35]
  IC50: > 10 nM
[36]
  IC50: > 10 nM
[37]
  IC50: 2.25 nM
[38]
  IC50: 2.93 nM
[39]
  IC50: 5.35 nM
[40]
  IC50: 9.17 nM
[41]
  IC50: 5.67 nM
[42]
  IC50: 2.2 nM
[43]
  IC50: > 10 nM
[44]
  IC50: 1.18 nM
[45]
  IC50: 3.01 nM
[46]
  IC50: > 10 nM
[47]
  IC50: > 10 nM
[48]
  IC50: > 10 nM
[49]
  IC50: 2.47 nM
[50]
  IC50: > 10 nM
[51]
  IC50: > 10 nM
